Data as given in patent publication US11285133B2, “2- or 3-imidazolines as carbapenemases inhibitors” (priority 2017, dated 2022).
Marks after values point to notes of the source that are not given here.

How the values were obtained:
Assay type in all cases: biochemical
OXA-48 Enzyme = OXA-48 Enzyme (Klebsiella pneumoniae, UniProt Q6XEC0); assay: Imipenem hydrolysis monitored by UV absorbance slope, OXA-48 enzyme; conditions: for OXA-48 Enzyme Inhibition at 10 μM: 10 μM compound; for inhibition at 10 µM: read-out: OXA-48 Enzyme Inhibition at 10 μM
Method: (§1) These tests are conducted by comparing UV absorbance slope measurements of impenem alone, and then imipenem with the concerned 3-imidazolines at given concentrations in the presence of the enzyme. It was thus possible to monitor the hydrolysis of imipenem. Lower the value of the slope, the higher is the percentage of inhibition of the enzyme.

KPC Enzyme = KPC Enzyme (Klebsiella pneumoniae, UniProt Q9F663); assay: Imipenem hydrolysis monitored by UV absorbance slope, KPC enzyme; conditions: for KPC Enzyme percentage of inhibition at 10 μM: 10 μM compound, starred cells in the IC50 column, ND = Not Detectable (at 10 μM); for inhibition at 10 µM: read-out: KPC Enzyme percentage of inhibition at 10 μM
Method: as §1

NDM-1 Enzyme = NDM-1 Enzyme (Klebsiella pneumoniae, UniProt C7C422); assay: Imipenem hydrolysis monitored by UV absorbance slope, NDM-1 enzyme; conditions: 10 μM compound, starred cells in the IC50 column
Method: as §1

KPC Enzyme, sequence (Q9F663 25-293, looked up): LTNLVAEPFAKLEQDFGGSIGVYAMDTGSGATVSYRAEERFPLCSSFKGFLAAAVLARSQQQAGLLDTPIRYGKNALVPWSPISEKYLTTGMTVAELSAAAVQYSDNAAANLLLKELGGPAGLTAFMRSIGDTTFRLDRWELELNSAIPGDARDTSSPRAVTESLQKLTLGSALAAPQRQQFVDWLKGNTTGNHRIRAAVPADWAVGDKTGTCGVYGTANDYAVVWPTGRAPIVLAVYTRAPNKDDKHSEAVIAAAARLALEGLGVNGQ
OXA-48 Enzyme, sequence (Q6XEC0 23-265 limits assumed): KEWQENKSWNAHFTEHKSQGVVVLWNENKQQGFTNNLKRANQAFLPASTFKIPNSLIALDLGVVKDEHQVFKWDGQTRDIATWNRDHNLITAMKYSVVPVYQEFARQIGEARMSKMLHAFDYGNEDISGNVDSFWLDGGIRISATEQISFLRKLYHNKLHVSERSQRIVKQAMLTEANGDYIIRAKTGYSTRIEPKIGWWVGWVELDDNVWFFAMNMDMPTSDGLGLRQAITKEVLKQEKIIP
NDM-1 Enzyme, sequence (C7C422 29-270, looked up, species assumed): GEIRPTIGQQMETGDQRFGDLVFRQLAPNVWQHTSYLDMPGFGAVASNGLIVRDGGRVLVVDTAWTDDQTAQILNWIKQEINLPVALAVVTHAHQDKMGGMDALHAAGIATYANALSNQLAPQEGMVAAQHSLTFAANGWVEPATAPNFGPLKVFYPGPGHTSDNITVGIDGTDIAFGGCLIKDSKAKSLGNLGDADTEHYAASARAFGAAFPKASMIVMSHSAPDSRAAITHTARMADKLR

SMILES	OXA-48 Enzyme Inhibition at 10 μM (OXA-48 Enzyme)	inhibition at 10 µM (OXA-48 Enzyme) [%]	other results
COc1ccc(C2=NC(c3ccccc3)N(c3ccccc3)C2C)cc1 (centres unmarked) [Compound 8]	Not Detectable		KPC Enzyme percentage of inhibition at 10 μM (KPC Enzyme): 23%*
CC1C(c2ccccc2)=NC(c2ccccc2)N1c1ccc(I)cc1 (centres unmarked) [Compound 14]	Not Detectable		
COc1ccc(C2N=C(c3ccccc3)C(C)N2c2ccccc2)cc1 (centres unmarked) [Compound 1]		9	
C/C(=N\c1ccccc1)C1(c2ccccc2)N=C(c2ccccc2)N(c2ccccc2)C1C (centres unmarked) [Compound 25]	Not Detectable		inhibition at 10 µM (KPC Enzyme): 30%
C/C(=N\c1ccc(Br)cc1)C1(c2ccccc2)N=C(c2ccccc2)N(c2ccc(Br)cc2)C1C (centres unmarked) [Compound 27]		38	
C/C(=N\c1ccc(Cl)cc1)C1(c2ccc(Cl)cc2)N=C(c2ccc(Cl)cc2)N(c2ccc(Cl)cc2)C1C (centres unmarked) [Compound 28]		31	
COc1ccc(C2=NC(c3ccccc3)N(c3ccc(OC)cc3)C2C)cc1 (centres unmarked) [Compound 11]	Not Detectable		NDM-1 Enzyme percentage of inhibition at 10 μM (NDM-1 Enzyme): 20%*
COc1ccc(C2=NC(c3ccc(OC)cc3)N(c3ccc(OC)cc3)C2C)cc1 (centres unmarked) [Compound 7]	Not Detectable		KPC Enzyme percentage of inhibition at 10 μM (KPC Enzyme): 18%*
COc1ccc(N2C(C)C(c3ccc(Cl)cc3)=NC2c2ccc(Cl)cc2)cc1 (centres unmarked) [Compound 12]	Not Detectable		inhibition at 10 µM (KPC Enzyme): 50%
CC1C(c2ccc(Cl)cc2)=NC(c2ccc(Cl)cc2)N1c1ccccc1 (centres unmarked) [Compound 18]	Not Detectable		KPC Enzyme percentage of inhibition at 10 μM (KPC Enzyme): 14%*
COc1ccc(C2N=C(c3ccccc3)C(C)N2c2ccc(I)cc2)cc1 (centres unmarked) [Compound 2]		9	
C/C(=N\c1ccccc1)C1(c2ccc(Cl)cc2)N=C(c2ccc(Cl)cc2)N(c2ccccc2)C1C (centres unmarked) [Compound 24]		38	
CC1C(c2ccccc2)=NC(c2ccccc2)N1c1ccccc1 (centres unmarked) [Compound 13]	Not Detectable		KPC Enzyme percentage of inhibition at 10 μM (KPC Enzyme): 23%*
CC1C(c2ccccc2)=NC(c2ccccc2)N1c1ccc(Br)cc1 (centres unmarked) [Compound 15]	Not Detectable		
COc1ccc(N2C(C)C(c3ccccc3)=NC2c2ccccc2)cc1 (centres unmarked) [Compound 17]	Not Detectable		KPC Enzyme percentage of inhibition at 10 μM (KPC Enzyme): 17%*
COc1ccc(C2N=C(c3ccccc3)C(C)N2c2ccc(Br)cc2)cc1 (centres unmarked) [Compound 6]	Not Detectable		inhibition at 10 µM (NDM-1 Enzyme; read-out: NDM-1 Enzyme percentage of inhibition at 10 μM): 20%
C/C(=N\c1ccc(Cl)cc1)C1(c2ccccc2)N=C(c2ccccc2)N(c2ccc(Cl)cc2)C1C (centres unmarked) [Compound 26]		22	
COc1ccc(C2N=C(c3ccccc3)C(C)N2c2ccc(C(F)(F)F)cc2)cc1 (centres unmarked) [Compound 5]		19	
COc1ccc(C2N=C(c3ccccc3)C(C)N2c2ccc(OC)cc2)cc1 (centres unmarked) [Compound 3]		11	
COc1ccc(C2N=C(c3ccccc3)C(C)N2c2ccc(Cl)cc2)cc1 (centres unmarked) [Compound 4]	Not Detectable		
C/C(=N\c1ccc(Br)cc1)C1(c2ccc(Cl)cc2)N=C(c2ccc(Cl)cc2)N(c2ccc(Br)cc2)C1C (centres unmarked) [Compound 29]		36	
CC1C(c2ccc(Cl)cc2)=NC(c2ccc(Cl)cc2)N1c1ccc(Cl)cc1 (centres unmarked) [Compound 19]	50%		
COc1ccc(C2=NC(c3ccc(OC)cc3)N(c3ccccc3)C2C)cc1 (centres unmarked) [Compound 9]	Not Detectable		inhibition at 10 µM (KPC Enzyme): 40%
CC1C(c2ccccc2)=NC(c2ccccc2)N1c1ccc(Cl)cc1 (centres unmarked) [Compound 16]	Not Detectable		KPC Enzyme percentage of inhibition at 10 μM (KPC Enzyme): 18%*
